Test results taken from PMC10487733, “Synthesis, Conformational Analysis and Antitumor Activity of the Naturally Occurring Antimicrobial Medium-Length Peptaibol Pentadecaibin and Spin-Labeled Analogs Thereof” (International Journal of Molecular Sciences, 2023).
pIC50: −log10 of the molar value. Where a SMILES comes first, the peptide text is derived from it. [ ]: non-standard residue; d: D form. TOAC = CC1(C)CC(N)(C(=O)O)CC(C)(C)N1[O]; Phe(ol) = N[C@H](CO)Cc1ccccc1; Aib = CC(C)(N)C(=O)O

Experiments:
[1] = system: SK-OV-3 (human ovarian adenocarcinoma); settings: SK-OV-3 cells, 24 h exposure to 0–20 µM peptaibol, MTS read-out at 490 nm; value [95% CI]; at least three independent experiments in triplicate
[2] = Circular dichroism in SDS micelles (helix aggregation index); assay type: physicochemical; settings: CD in 100 mM aqueous SDS micelles, 25 °C, 1 mm cell, 16 scans; ratio is ≈ 0.9 in CH3OH
Method: We performed a CD analysis of the peptides in methanol and in the presence of micelles of sodium dodecyl sulfate (SDS) 100 mM in water.
CD spectra of α-helical peptides feature two negative and one positive maxima centered at about 208, 222 and 195 nm, respectively. Aib-containing peptides are known to fold in 3_10-helices, which is common for peptaibols. In this case, the first negative maximum shifts from 208 to about 205 nm.
CD measurements were acquired on a Jasco J-1500 spectrophotometer (Tokyo, Japan), using a 1 mm pathlength quartz cell (Hellma Analytics, Munich, Germany). Methanol or a solution of sodium dodecyl sulfate (SDS) 100 mM in milliQ water was used as solvent. An amount of 1 mM of solutions of the three peptides in each of the two solvents of choice was prepared. Then, 300 µL of each solution was inserted in the 1 mm quartz cell and the cell put into the cell holder of the Jasco J-1500 instrument. The measurements were performed at 25 °C, acquiring 16 scans. The temperature was kept constant by means of an external Peltier thermostat (ThermoHaake C25P, Karlbruhe, Germany).

[3] = system: MUG-Mel2 (human melanoma); settings: MUG-Mel2 cells, 24 h exposure to 0–20 µM peptaibol, MTS read-out at 490 nm; CI not given; at least three independent experiments in triplicate
[4] = Peptide-induced carboxyfluorescein leakage from PE/PG liposomes; settings: PE/PG 7:3 SUVs 0.06 mM, HEPES pH 7.4, 20 min incubation, fluorescence 488/520 nm, relative to Triton X-100; qualitative; more efficient than trichogin GA IV, particularly on these SUVs
Method: (§1) The assay was carried out on model liposomes (small unilamellar vesicles, SUV) of two different compositions, namely phosphatidylcholine/cholesterol (PC/Ch) 7:3 and phosphatidylethanolamine/phosphatidylglycerol (PE/PG) 7:3. Using fluorescence measurements, the ability of the peptides to induce the release of the carboxyfluorescein (CF) dye previously included within SUVs was evaluated.
(§2) The chosen lipid compositions result in different net surface charges on the SUVs. […] On the other hand, when the peptide perturbs the artificial membrane, it causes the leakage of the CF, and therefore leads to an increase in fluorescence intensity. The maximum value of fluorescence intensity, corresponding to the complete destruction of the vesicles via the surfactant Triton X-100, was used as a reference. […]
(§3) Phosphatidylcholine (PC), phosphatidylglycerol (PG), phosphatidylethanolamine (PE) and cholesterol (Ch) were purchased from Avanti Polar Lipids (Alabaster, AL, USA). […] To evaluate the peptide ability to modulate membrane permeability, CF leakage from the liposomes was measured via fluorescence spectroscopy on a Perkin Elmer (Waltham, MA, USA) MPF-66 spectrofluorimeter. The procedure was as follows: 2.5 mL of each SUV at 0.06 mM concentration was inserted in twelve disposable fluorescence cuvettes and fluorescence was recorded (λexc = 488 nm) for all of them at 520 nm (F0). […]

[5] = Peptide-induced carboxyfluorescein leakage from PC/Ch liposomes; settings: PC/Ch 7:3 SUVs 0.06 mM, HEPES pH 7.4, 20 min incubation, fluorescence 488/520 nm, relative to Triton X-100; qualitative; more efficient than trichogin GA IV
Method: as §1, §2, §3

[6] = system: A549 (human lung adenocarcinoma); settings: A549 cells, 24 h exposure to 0–20 µM peptaibol, MTS read-out at 490 nm; value [95% CI]; at least three independent experiments in triplicate
[7] = system: MDA-MB-231 (human triple-negative breast cancer); settings: MDA-MB-231 cells, 24 h exposure to 0–20 µM peptaibol, MTS read-out at 490 nm; value [95% CI]; at least three independent experiments in triplicate

| Structure (SMILES) | pIC50 [1] | ratio R = [θ]222/[θ]208 (index of aggregation between helices) [2] | pIC50 [3] | membrane activity (CF leakage from SUVs) [4] | membrane activity (CF leakage from SUVs) [5] | pIC50 [6] | pIC50 [7] |
| --- | --- | --- | --- | --- | --- | --- | --- |
| CC(=O)NC(C)(C)C(=O)NCC(=O)N[C@@H](C)C(=O)N[C@@H](CC(C)C)C(=O)NC(C)(C)C(=O)N[C@@H](CCC(N)=O)C(=O)NC(C)(C)C(=O)N[C@H](C(=O)NC(C)(C)C(=O)N[C@@H](C)C(=O)NC(C)(C)C(=O)NC(C)(C)C(=O)NC(C)(C)C(=O)N[C@@H](CCC(N)=O)C(=O)N[C@H](CO)Cc1ccccc1)C(C)C [VX, pentadecaibin] (Ac-[Aib]GAL[Aib]Q[Aib]V[Aib]A[Aib][Aib][Aib]Q[Phe(ol)]) | 4.96 | greater than 1 | 4.85 | equally membrane active | equally membrane active | 5.04 | 5.06 |
| CC(=O)NC1(C(=O)NCC(=O)N[C@@H](C)C(=O)N[C@@H](CC(C)C)C(=O)NC(C)(C)C(=O)N[C@@H](CCC(N)=O)C(=O)NC(C)(C)C(=O)N[C@H](C(=O)NC(C)(C)C(=O)N[C@@H](C)C(=O)NC(C)(C)C(=O)NC(C)(C)C(=O)NC(C)(C)C(=O)N[C@@H](CCC(N)=O)C(=O)N[C@H](CO)Cc2ccccc2)C(C)C)CC(C)(C)N([O])C(C)(C)C1 [To1-VX, [Toac^1]-pentadecaibin] (Ac-[TOAC]GAL[Aib]Q[Aib]V[Aib]A[Aib][Aib][Aib]Q[Phe(ol)]) | 5.02 | greater than 1 | 5.00 |  |  | 4.96 | 5.10 |
| CC(=O)NC(C)(C)C(=O)NCC(=O)N[C@@H](C)C(=O)N[C@@H](CC(C)C)C(=O)NC(C)(C)C(=O)N[C@@H](CCC(N)=O)C(=O)NC(C)(C)C(=O)N[C@H](C(=O)NC(C)(C)C(=O)N[C@@H](C)C(=O)NC1(C(=O)NC(C)(C)C(=O)NC(C)(C)C(=O)N[C@@H](CCC(N)=O)C(=O)N[C@H](CO)Cc2ccccc2)CC(C)(C)N([O])C(C)(C)C1)C(C)C [To11-VX, [Toac^11]-pentadecaibin] (Ac-[Aib]GAL[Aib]Q[Aib]V[Aib]A[TOAC][Aib][Aib]Q[Phe(ol)]) |  | greater than 1 | 4.87 |  |  | 5.01 | 5.09 |
